“And” between values parts separate entries of the source, which are not always exact repeats. Equal entries are not always repeated.
Test system: BDF1 mice, Adenocarcinoma 755 s.c., tumor weight T/C
Test: NCI In Vivo Anticancer Drug Screen. Data for tumor model Adenocarcinoma 755 (subcutaneous) in B6D2F1 (BDF1) mice
Conditions: endpoint: mean tumor weight, higher = larger tumour
Outline: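 Values express treated (T) relative to vehicle-dosed control (C) animals, based on survival or tumour size measured after compound treatment of mice bearing a transplanted tumour.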

[1] = dose: 57.0 mg/kg/injection, schedule: Q01DX011 (ip), vehicle: carboxymethylcellulose (CMC)
[2] = dose: 57.0 mg/kg/injection, schedule: Q01DX011 (ip), vehicle: methylcellulose (MC)
[3] = dose: 6.0 mg/kg/injection, schedule: Q01DX011 (ip), vehicle: methylcellulose (MC)
[4] = dose: 25.0 mg/kg/injection, schedule: Q01DX011 (ip), vehicle: methylcellulose (MC)

In the case of `O=C(CCBr)N1CCCN(C(=O)CCBr)CC1`, the T/C (dose: 28.0 mg/kg/injection, schedule: Q01DX011 (ip), vehicle: carboxymethylcellulose (CMC)) is reported as 85 % of control, the T/C [1] is reported as 60 % of control and the T/C [2] is reported as 58 % of control and 78 % of control. For the same compound, the T/C (dose: 113.0 mg/kg/injection, schedule: Q01DX011 (ip), vehicle: carboxymethylcellulose (CMC)) was 16 % of control and the T/C (dose: 113.0 mg/kg/injection, schedule: Q01DX011 (ip), vehicle: methylcellulose (MC)) was 35 % of control.
`C[C@H]1C[C@@H]2[C@H]([C@@H](O)C[C@@]3(C)[C@H]2CC[C@]3(O)C(=O)CO)[C@@]2(C)C=CC(=O)C=C12` was tested, and the T/C (dose: 14.3 mg/kg/injection, schedule: Q01DX011 (sc), vehicle: steriod suspending solution) was 21 % of control, the T/C (dose: 14.3 mg/kg/injection, schedule: Q01DX011 (sc), vehicle: water) was 48 % of control and 56 % of control and the T/C (dose: 28.5 mg/kg/injection, schedule: Q01DX011 (sc), vehicle: steriod suspending solution) was 8 % of control. For the same compound, the T/C (dose: 28.5 mg/kg/injection, schedule: Q01DX011 (sc), vehicle: water) was 25 % of control and 47 % of control, the T/C (dose: 57.0 mg/kg/injection, schedule: Q01DX011 (sc), vehicle: steriod suspending solution) was 1 % of control and the T/C (dose: 57.0 mg/kg/injection, schedule: Q01DX011 (sc), vehicle: water) was 5 % of control and 29 % of control. The T/C (dose: 114.0 mg/kg/injection, schedule: Q01DX011 (sc), vehicle: steriod suspending solution) was 1 % of control and the T/C (dose: 114.0 mg/kg/injection, schedule: Q01DX011 (sc), vehicle: water) was 3 % of control.
In the case of `Nc1nc(N)c(N=O)c(Nc2ccc(Cl)c(Cl)c2)n1`, the T/C (dose: 1.75 mg/kg/injection, schedule: Q01DX011 (ip), vehicle: methylcellulose (MC)) is reported as 90 % of control, the T/C (dose: 3.0 mg/kg/injection, schedule: Q01DX011 (ip), vehicle: carboxymethylcellulose (CMC)) is reported as 76 % of control and the T/C (dose: 3.5 mg/kg/injection, schedule: Q01DX011 (ip), vehicle: methylcellulose (MC)) is reported as 77 % of control. For the same compound, the T/C (dose: 4.0 mg/kg/injection, schedule: Q01DX011 (ip), vehicle: methylcellulose (MC)) was 61 % of control, the T/C [3] was 50 % of control and the T/C (dose: 7.0 mg/kg/injection, schedule: Q01DX011 (ip), vehicle: carboxymethylcellulose (CMC)) was 57 % of control. The T/C (dose: 7.0 mg/kg/injection, schedule: Q01DX011 (ip), vehicle: methylcellulose (MC)) was 48 % of control, the T/C (dose: 14.0 mg/kg/injection, schedule: Q01DX011 (ip), vehicle: carboxymethylcellulose (CMC)) was 45 % of control and 50 % of control and the T/C (dose: 14.0 mg/kg/injection, schedule: Q01DX011 (ip), vehicle: methylcellulose (MC)) was 25 % of control and 44 % of control. The T/C (dose: 28.0 mg/kg/injection, schedule: Q01DX011 (ip), vehicle: methylcellulose (MC)) was 21 % of control, the T/C [1] was 66 % of control and the T/C [2] was 18 % of control. For the same compound, the T/C (dose: 114.0 mg/kg/injection, schedule: Q01DX011 (ip), vehicle: carboxymethylcellulose (CMC)) was 63 % of control and the T/C (dose: 228.0 mg/kg/injection, schedule: Q01DX011 (ip), vehicle: carboxymethylcellulose (CMC)) was 8 % of control.
`S=c1nc[nH]c2c1ncn2C1CCCC1` was tested, and the T/C (dose: 3.0 mg/kg/injection, schedule: Q01DX011 (ip), vehicle: methylcellulose (MC)) was 69 % of control, the T/C [3] was 50 % of control and the T/C (dose: 12.0 mg/kg/injection, schedule: Q01DX011 (ip), vehicle: methylcellulose (MC)) was 22 % of control. The T/C (dose: 15.0 mg/kg/injection, schedule: Q01DX011 (ip), vehicle: carboxymethylcellulose (CMC)) was 12 % of control and 17 % of control, the T/C (dose: 15.0 mg/kg/injection, schedule: Q01DX011 (oral), vehicle: carboxymethylcellulose (CMC)) was 13 % of control and the T/C [4] was 4 % of control and 5 % of control. The T/C (dose: 30.0 mg/kg/injection, schedule: Q01DX011 (ip), vehicle: carboxymethylcellulose (CMC)) was 6 % of control and 10 % of control, the T/C (dose: 30.0 mg/kg/injection, schedule: Q01DX011 (oral), vehicle: carboxymethylcellulose (CMC)) was 7 % of control and the T/C (dose: 60.0 mg/kg/injection, schedule: Q01DX011 (ip), vehicle: carboxymethylcellulose (CMC)) was 2 % of control and 3 % of control. The T/C (dose: 60.0 mg/kg/injection, schedule: Q01DX011 (oral), vehicle: carboxymethylcellulose (CMC)) was 4 % of control, the T/C (dose: 120.0 mg/kg/injection, schedule: Q01DX011 (oral), vehicle: carboxymethylcellulose (CMC)) was 3 % of control and the T/C (dose: 162.0 mg/kg/injection, schedule: Q01DX001 (ip), vehicle: carboxymethylcellulose (CMC)) was 94 % of control. For the same compound, the T/C (dose: 325.0 mg/kg/injection, schedule: Q01DX001 (ip), vehicle: carboxymethylcellulose (CMC)) was 7 % of control and the T/C (dose: 1300.0 mg/kg/injection, schedule: Q01DX001 (ip), vehicle: carboxymethylcellulose (CMC)) was 1 % of control.
With `Nc1ncnc2c1ncn2CCO` the T/C [4] was 52 % of control, the T/C (dose: 50.0 mg/kg/injection, schedule: Q01DX011 (ip), vehicle: methylcellulose (MC)) was 76 % of control and the T/C (dose: 100.0 mg/kg/injection, schedule: Q01DX011 (ip), vehicle: methylcellulose (MC)) was 67 % of control.
In the case of `CC(C)CN1CC(C)C(=O)N(c2ccccc2)C1=O` (stereo not drawn), the T/C (dose: 15.0 mg/kg/injection, schedule: Q01DX011 (ip), vehicle: methylcellulose (MC)) is reported as 61 % of control, the T/C (dose: 31.0 mg/kg/injection, schedule: Q01DX011 (ip), vehicle: methylcellulose (MC)) is reported as 66 % of control and the T/C (dose: 62.0 mg/kg/injection, schedule: Q01DX011 (ip), vehicle: methylcellulose (MC)) is reported as 73 % of control. For the same compound, the T/C (dose: 125.0 mg/kg/injection, schedule: Q01DX011 (ip), vehicle: methylcellulose (MC)) was 75 % of control and the T/C (dose: 250.0 mg/kg/injection, schedule: Q01DX011 (ip), vehicle: methylcellulose (MC)) was 68 % of control.
`CCC(=O)O[C@H]1CC[C@H]2[C@@H]3CCC4=CC(=O)CC[C@]4(C)[C@H]3CC[C@]12C` was tested, and the T/C (dose: 125.0 mg/kg/injection, schedule: Q01DX011 (sc), vehicle: steriod suspending solution) was 101 % of control and 104 % of control, the T/C (dose: 400.0 mg/kg/injection, schedule: Q01DX011 (sc), vehicle: steriod suspending solution) was 69 % of control and the T/C (dose: 666.66 mg/kg/injection, schedule: Q01DX011 (sc), vehicle: steriod suspending solution) was 61 % of control.
With `COC(=O)[C@@H]1c2cc3c(c(O)c2[C@@H](OC2OC(C)C(OC)C(C)(OC)C2OC)C[C@]1(C)O)C(=O)c1c(O)cc2c(c1C3=O)O[C@H]1O[C@]2(C)[C@H](O)[C@@H](N(C)C)[C@@H]1O` (stereo partly drawn) the T/C (dose: 0.2 mg/kg/injection, schedule: Q01DX011 (ip), vehicle: carboxymethylcellulose (CMC)) was 83 % of control, the T/C (dose: 0.3 mg/kg/injection, schedule: Q01DX011 (ip), vehicle: carboxymethylcellulose (CMC)) was 89 % of control and the T/C (dose: 0.3 mg/kg/injection, schedule: Q01DX011 (ip), vehicle: saline) was 179 % of control. For the same compound, the T/C (dose: 0.44 mg/kg/injection, schedule: Q01DX011 (ip), vehicle: carboxymethylcellulose (CMC)) was 57 % of control, the T/C (dose: 0.44 mg/kg/injection, schedule: Q01DX011 (ip), vehicle: saline) was 113 % of control and the T/C (dose: 0.67 mg/kg/injection, schedule: Q01DX011 (ip), vehicle: carboxymethylcellulose (CMC)) was 99 % of control. For the same compound, the T/C (dose: 1.0 mg/kg/injection, schedule: Q01DX011 (ip), vehicle: carboxymethylcellulose (CMC)) was 103 % of control.
In the case of `O=C(Nc1ccc(NC2=NCCN2)cc1)c1ccc(C(=O)Nc2ccc(NC3=NCCN3)cc2)cc1`, the T/C (dose: 4.0 mg/kg/injection, schedule: Q01DX011 (ip), vehicle: saline) is reported as 96 % of control, the T/C (dose: 8.0 mg/kg/injection, schedule: Q01DX011 (ip), vehicle: saline) is reported as 85 % of control and the T/C (dose: 16.0 mg/kg/injection, schedule: Q01DX011 (ip), vehicle: saline) is reported as 83 % of control.
`CN1CCC(CN2c3ccccc3Sc3ccccc32)CC1` was tested, and the T/C (dose: 120.0 mg/kg/injection, schedule: Q01DX011 (ip), vehicle: methylcellulose (MC)) was 23 % of control.
